In ChEMBL document CHEMBL5346925, “3,4-Dihydrobenzo[e][1,2,3]oxathiazine 2,2-dioxide analogs act as potential AMPA receptor potentiators with antidepressant activity” (Eur J Med Chem, 2023):

What was measured:
[1] = target: T1, Glutamate receptor ionotropic, AMPA (Rattus norvegicus) (UniProt P19491+P19492+P19493+P19490); assay: Agonist activity at AMPA receptor in rat Primary neuron cells assessed as increase in fluorescence level at 1 uM incubated for 1 hr by calcium 2+ influx assay relative to s-AMPA coupled TAK-137; type: cell-based
[2] = target: T1, Glutamate receptor ionotropic, AMPA (Rattus norvegicus); assay: Agonist activity at AMPA receptor in rat Primary neuron cells assessed as potentiation of s-AMPA induced calcium flux at 1 uM incubated for 1 hr by calcium 2+ influx assay relative to s-AMPA coupled TAK-137; type: cell-based
[3] = MRT (0 to infinity) in Sprague-Dawley rat at 3 mg/kg, po by LC-MS/MS analysis; type: ADME, organism-based; details: in vivo
[4] = MRT (0 to t) in Sprague-Dawley rat at 0.3 mg/kg, iv by LC-MS/MS analysis; type: ADME, organism-based; details: in vivo
[5] = Volume of distribution at steady state in Sprague-Dawley rat at 0.3 mg/kg, iv by LC-MS/MS analysis; type: ADME, organism-based; details: in vivo, read-out: Vdss
[6] = Cmax in Sprague-Dawley rat at 3 mg/kg, po by LC-MS/MS analysis; type: ADME, organism-based; parameters: dose 3 mg/kg, route po; details: in vivo
[7] = Tmax in Sprague-Dawley rat at 3 mg/kg, po by LC-MS/MS analysis; type: ADME, organism-based; details: in vivo
[8] = Cmax in Sprague-Dawley rat at 0.3 mg/kg, iv by LC-MS/MS analysis; type: ADME, organism-based; parameters: dose 0.3 mg/kg, route iv; details: in vivo
[9] = Half life in Sprague-Dawley rat at 3 mg/kg, po by LC-MS/MS analysis; type: ADME, organism-based; details: in vivo
[10] = AUC (0 to t) in Sprague-Dawley rat at 0.3 mg/kg, iv by LC-MS/MS analysis; type: ADME, organism-based; parameters: dose 0.3 mg/kg, route iv; details: in vivo
[11] = AUC (0 to infinity) in Sprague-Dawley rat at 3 mg/kg, po by LC-MS/MS analysis; type: ADME, organism-based; parameters: dose 3 mg/kg, route po; details: in vivo
[12] = Oral bioavailability in Sprague-Dawley rat at 3 mg/kg by LC-MS/MS analysis; type: ADME, organism-based; details: in vivo
[13] = target: Glutamate receptor ionotropic, AMPA (Rattus norvegicus, UniProt P19490+P19491+P19492+P19493); assay: Agonist activity at AMPA receptor in rat Primary neuron cells; type: cell-based
[14] = MRT (0 to infinity) in Sprague-Dawley rat at 0.3 mg/kg, iv by LC-MS/MS analysis; type: ADME, organism-based; details: in vivo
[15] = AUC (0 to infinity) in Sprague-Dawley rat at 0.3 mg/kg, iv by LC-MS/MS analysis; type: ADME, organism-based; parameters: dose 0.3 mg/kg, route iv; details: in vivo
[16] = target: T1, Glutamate receptor ionotropic, AMPA (Rattus norvegicus); assay: Agonist activity at AMPA receptor in rat Primary neuron cells relative to control; type: cell-based; details: filed as agonist
[17] = MRT (0 to t) in Sprague-Dawley rat at 3 mg/kg, po by LC-MS/MS analysis; type: ADME, organism-based; details: in vivo
[18] = Clearance in Sprague-Dawley rat at 0.3 mg/kg, iv by LC-MS/MS analysis; type: ADME, organism-based; details: in vivo
[19] = AUC (0 to t) in Sprague-Dawley rat at 3 mg/kg, po by LC-MS/MS analysis; type: ADME, organism-based; parameters: dose 3 mg/kg, route po; details: in vivo
[20] = Half life in Sprague-Dawley rat at 0.3 mg/kg, iv by LC-MS/MS analysis; type: ADME, organism-based; details: in vivo
[21] = Tmax in Sprague-Dawley rat at 0.3 mg/kg, iv by LC-MS/MS analysis; type: ADME, organism-based; details: in vivo

Row | SMILES | Activity [1] | Activity ([2]; filed as agonist) | Activity [2] | further results
1 | COc1ccccc1-c1ccc(-c2cccc3c2OS(=O)(=O)NC3C)cc1 (stereo not drawn) | 8.5% | 65.5% |  | 
2 | CC1NS(=O)(=O)Oc2c(-c3ccc(-c4cccc(F)c4)cc3)cccc21 (stereo not drawn) | 8.6% | 62.4% |  | 
3 | O=S1(=O)NCc2cccc(-c3ccc(-c4ccccc4)cc3)c2O1 | 6.2% | 69.6% |  | 
4 | CC(C)(C)c1ccc(-c2ccc(-c3cccc4c3OS(=O)(=O)NC4)cc2)cc1 | -2% |  | -1.3% | 
5 | O=S1(=O)NCc2cccc(-c3ccc(-c4ccc(C(F)F)cc4)cc3)c2O1 | 7.2% |  | 23.9% | 
6 | O=S1(=O)NCc2cccc(-c3ccc(Oc4ccccc4)cc3)c2O1 | 4.1% | 77.3% |  | MRT inf [3]: 4.56 h; MRT last [4]: 0.7 h; Vd [5]: 1.79 L/kg; Cmax [6]: 96.1 ng/mL; Tmax [7]: 0.5 h; Cmax [8]: 246 ng/mL; half-life [9]: 3.12 h; AUC(0-t) [10]: 134 ng·h/mL; AUC(0-inf) [11]: 328 ng·h/mL; bioavailability [12]: 19.8%; EC50 [13]: 1630 nM; MRT inf [14]: 0.81 h; AUC(0-inf) [15]: 136 ng·h/mL; Emax [16]: 169%; MRT last [17]: 2.63 h; clearance [18]: 37.4 mL/min/kg; AUC(0-t) [19]: 265 ng·h/mL; half-life [20]: 1.27 h; Tmax [21]: 4.8 min
7 | O=S1(=O)NCc2cccc(-c3ccccc3Oc3ccccc3)c2O1 | -0.5% |  | 1% | 
8 | O=S1(=O)NCc2cccc(-c3ccc(-c4ccc(OC(F)(F)F)cc4)cc3)c2O1 | -1.5% |  | -3% | 
9 | Cc1ccc(-c2ccc(-c3cccc4c3OS(=O)(=O)NC4)c(F)c2)cc1 | 1.4% | 40.7% |  | 
10 | COc1ccccc1-c1ccc(-c2cccc3c2OS(=O)(=O)NC3)cc1 | 2.1% | 83.8% |  | EC50 [13]: 379 nM; Emax [16]: 125%
11 | O=S1(=O)NCc2cccc(-c3ccc(-c4ccc(F)cc4)cc3)c2O1 | 8.1% | 85.3% |  | 
12 | Cc1ccc(-c2ccc(-c3cccc4c3OS(=O)(=O)NC4)cc2)cc1 | 3.5% | 66% |  | 
13 | O=S1(=O)NCc2ccc(-c3ccc(Oc4ccccc4)cc3)cc2O1 | 0.7% |  | -0.8% | 
14 | O=S1(=O)NCc2cccc(-c3ccc(-c4ccc(C(F)(F)F)cc4)cc3)c2O1 | 0.8% |  | 0.7% | 
15 | CC1NS(=O)(=O)Oc2c(-c3ccc(-c4ccc(F)cc4)cc3)cccc21 (stereo not drawn) | 3.7% | 59.6% |  | 
16 | COc1ccc(-c2ccc(-c3cccc4c3OS(=O)(=O)NC4)c(F)c2)cc1 | 3.2% | 67.9% |  | 
17 | COc1ccc(-c2ccc(-c3cccc4c3OS(=O)(=O)NC4)cc2F)cc1 | 5.3% | 55.8% |  | 
18 | CC(C)Oc1ccc(-c2ccc(-c3cccc4c3OS(=O)(=O)NC4)cc2)cc1 | -2.1% |  | 3% | 
19 | CC1NS(=O)(=O)Oc2c(-c3ccc(-c4ccccc4F)cc3)cccc21 (stereo not drawn) | 10.5% | 69.2% |  | 
20 | COc1ccc(-c2ccc(-c3cccc4c3OS(=O)(=O)NC4)cc2)cc1 | -3.7% | 82.4% |  | EC50 [13]: 1240 nM; Emax [16]: 79%
21 | COc1ccc(-c2ccc(-c3cccc4c3OS(=O)(=O)NC4C)cc2)cc1 (stereo not drawn) | 2.1% | 50.7% |  | 
22 | O=S1(=O)NCc2cccc(-c3ccc(-c4ccc(F)c(F)c4)cc3)c2O1 | 2.5% |  | 38.7% | 
23 | COc1cccc(-c2ccc(-c3cccc4c3OS(=O)(=O)NC4)cc2)c1 | 2.5% | 56.4% |  | 
24 | O=S1(=O)NCc2cccc(-c3cccc(Oc4ccccc4)c3)c2O1 | 1% |  | 1.9% | 
25 | COc1cccc(-c2ccc(-c3cccc4c3OS(=O)(=O)NC4C)cc2)c1 (stereo not drawn) | 4.2% | 58.5% |  | 
26 | Cc1ccc(-c2ccc(-c3cccc4c3OS(=O)(=O)NC4C)cc2)cc1 (stereo not drawn) | 0.1% | 55.3% |  | 
27 | O=S1(=O)NCc2c(cccc2-c2ccc(Oc3ccccc3)cc2)O1 | 0.8% |  | 0% | 
28 | O=S1(=O)NCc2cc(-c3ccc(Oc4ccccc4)cc3)ccc2O1 | 0.5% |  | 1.4% | 

More lines, main results first:

Row | Activity [1] | Activity ([2]; filed as agonist) | Activity [2] | SMILES | further results
29 | 13.2% | 107% |  | CC(C)Oc1ccc(-c2cccc3c2OS(=O)(=O)NC3)cc1 | 
30 | 19.2% | 98.4% |  | COc1ccc(-c2cccc3c2OS(=O)(=O)NC3)cc1F | 
31 | 3.1% |  | 2.6% | COc1c(C)cc(-c2cccc3c2OS(=O)(=O)NC3)cc1C | 
32 | 6.3% |  | 37.7% | Cc1ccc(-c2ccc(-c3cccc4c3OS(=O)(=O)NC4)cc2F)cc1 | 
33 | 36.5% | 48% |  | O=S1(=O)NCc2cccc(-c3ccc(F)cc3)c2O1 | 
34 | 1% | 89.3% |  | COc1ccc(-c2cccc3c2OS(=O)(=O)NC3)cc1 | EC50 [13]: 555 nM; Emax [16]: 99%
35 | 29.4% | 106% |  | CC(C)(C)c1ccc(-c2cccc3c2OS(=O)(=O)NC3)cc1 | 
36 | 3.5% | 72.1% |  | O=S1(=O)NCc2cccc(-c3ccc(-c4cccc(F)c4)cc3)c2O1 | 
37 | 17.1% | 92% |  | O=S1(=O)NCc2cccc(-c3ccc4c(c3)OCO4)c2O1 | 
38 | 8.2% |  | 10.3% | COc1ccc(-c2cccc3c2OS(=O)(=O)NC3)c(F)c1 | 
39 | 1.4% | 72.2% |  | O=S1(=O)NCc2cccc(-c3ccc(OC(F)(F)F)cc3)c2O1 | 
40 | 2.9% |  | 23.7% | N#Cc1ccc(-c2cccc3c2OS(=O)(=O)NC3)cc1 | 
41 | 7.3% | 81.7% |  | Cc1ccc(-c2cccc3c2OS(=O)(=O)NC3)cc1 | 
42 | 14% | 81.3% |  | O=S1(=O)NCc2cccc(-c3ccc(C(F)(F)F)cc3)c2O1 | 
43 | 19.5% | 90.7% |  | O=S1(=O)NCc2cccc(-c3ccc4c(c3)OCCO4)c2O1 | 
44 | 1.9% |  | 0.6% | COc1ccc(-c2cccc3c2OS(=O)(=O)NC3)cc1C(F)(F)F | 
